pIC50: −log10 of the molar value.
Key:
[1] = target: T1, Lysosomal acid glucosylceramidase (Mus musculus, UniProt P17439); assay: Compound tested for inhibitory activity against beta-glucocerebrosidase enzyme
T1 sequence (P17439 whole entry): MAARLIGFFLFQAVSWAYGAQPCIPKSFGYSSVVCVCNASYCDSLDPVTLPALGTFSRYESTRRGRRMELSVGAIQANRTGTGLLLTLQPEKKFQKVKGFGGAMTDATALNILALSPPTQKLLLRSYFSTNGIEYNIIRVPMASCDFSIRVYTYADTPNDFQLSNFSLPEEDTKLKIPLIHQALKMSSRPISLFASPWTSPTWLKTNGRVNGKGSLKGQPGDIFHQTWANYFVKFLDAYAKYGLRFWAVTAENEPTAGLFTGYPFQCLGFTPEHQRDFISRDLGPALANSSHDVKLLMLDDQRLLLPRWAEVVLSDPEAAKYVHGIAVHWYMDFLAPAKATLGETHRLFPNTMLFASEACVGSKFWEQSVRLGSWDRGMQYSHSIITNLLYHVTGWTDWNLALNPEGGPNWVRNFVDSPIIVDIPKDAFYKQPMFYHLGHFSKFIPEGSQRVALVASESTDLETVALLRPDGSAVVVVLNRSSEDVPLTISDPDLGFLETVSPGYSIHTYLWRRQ

[2] = target: T2, Ceramide glucosyltransferase (Homo sapiens, UniProt Q16739); assay: Compound tested for inhibitory activity against glucosylceramide synthase enzyme at a concentration of 1.0*10e-4M; no inhibitory activity
T2 sequence (Q16739 whole entry): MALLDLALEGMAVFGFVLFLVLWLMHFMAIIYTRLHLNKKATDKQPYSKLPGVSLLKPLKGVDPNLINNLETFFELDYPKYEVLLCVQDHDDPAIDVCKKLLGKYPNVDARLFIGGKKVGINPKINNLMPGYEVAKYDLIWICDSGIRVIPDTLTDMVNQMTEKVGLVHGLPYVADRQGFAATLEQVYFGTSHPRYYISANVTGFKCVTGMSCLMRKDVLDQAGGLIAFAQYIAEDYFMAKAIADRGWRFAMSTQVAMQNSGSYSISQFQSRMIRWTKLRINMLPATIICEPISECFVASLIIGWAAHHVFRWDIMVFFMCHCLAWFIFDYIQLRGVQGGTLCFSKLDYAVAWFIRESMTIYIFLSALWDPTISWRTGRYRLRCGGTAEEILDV

[3] = target: T1, Lysosomal acid glucosylceramidase; assay: Compound tested for inhibitory activity against beta-glucocerebrosidase enzyme at a concentration of 1.0*10e-4M; no inhibitory activity
[4] = target: T2, Ceramide glucosyltransferase; assay: Compound tested for inhibitory activity against glucosylceramide synthase enzyme

Question: How did the pIC50 [1] turn out when `CCCCCCCCCC(=O)N[C@@H](CN[C@@H]1C=C(CO)[C@@H](O)[C@H](O)[C@@H]1O)[C@@H](O)c1ccccc1` was run?
Answer: The pIC50 was 6.52.

Question: And the IC50 [2]?
Answer: Its IC50 is “No inhibition”.

Question: How did the pIC50 [1] turn out when `CCCCCCCCCC(=O)N[C@H](CN[C@@H]1C=C(CO)[C@@H](O)[C@H](O)[C@@H]1O)[C@H](O)c1ccccc1` was run?
Answer: The pIC50 was 6.15.

Question: And the IC50 [2]?
Answer: Its IC50 is “No inhibition”.

Question: What does the source list for `CCCCCCCCCC(=O)N[C@@H](CNC1CC(CO)C(O)C(O)C1O)[C@H](O)c1ccccc1` (stereo not given in full)?
Answer: pIC50 [1]: 5.30; IC50 [2]: No inhibition

Question: For `CCCCCCCCCC(=O)N[C@H](CN[C@H]1C=C(CO)[C@@H](O)[C@H](O)[C@@H]1O)[C@H](O)c1ccccc1`, which IC50 [2] is on record?
Answer: The IC50 was “No inhibition”.

Question: And the IC50 [3]?
Answer: Its IC50 is “No inhibition”.

Question: With `CCCCCCCCCC(=O)N[C@H](CN[C@@H]1C=C(CO)[C@@H](O)[C@H](O)[C@@H]1O)[C@@H](O)c1ccccc1` as the compound, how does the pIC50 [1] read?
Answer: The pIC50 was 6.15.

Question: And the IC50 [2]?
Answer: The IC50 was “No inhibition”.

Question: `CCCCCCCCCC(=O)N[C@@H](CNC1CC(CO)C(O)C(O)C1O)[C@@H](O)c1ccccc1` (stereo not given in full) was tested. Which pIC50 [1] did it give?
Answer: The pIC50 was 4.70.

Question: What about the IC50 [2] of the same compound?
Answer: Its IC50 is “No inhibition”.

Question: With `CCCCCCCCCC(=O)N[C@H](CNC1CC(CO)C(O)C(O)C1O)[C@@H](O)c1ccccc1` (stereo not given in full) as the compound, how does the pIC50 [1] read?
Answer: Its pIC50 is 5.15.

Question: And the IC50 [2]?
Answer: Its IC50 is “No inhibition”.

Question: With `CCCCCCCCCC(=O)N[C@H](CNC1CC(CO)C(O)C(O)C1O)[C@H](O)c1ccccc1` (stereo not given in full) as the compound, how does the pIC50 [1] read?
Answer: The pIC50 was 5.00.

Question: What about the IC50 [2] of the same compound?
Answer: Its IC50 is “No inhibition”.

Question: `CCCCCCCCCC(=O)N[C@@H](CN[C@@H]1C=C(CO)[C@@H](O)[C@H](O)[C@@H]1O)[C@H](O)c1ccccc1` was tested. Which pIC50 [1] did it give?
Answer: Its pIC50 is 6.30.

Question: What about the IC50 [2] of the same compound?
Answer: The IC50 was “No inhibition”.

Question: For `CCCCCCCCCC(=O)N[C@H](CN1CCOCC1)[C@H](O)c1ccccc1`, which IC50 [3] is on record?
Answer: Its IC50 is “No inhibition”.

Question: What about the pIC50 [4] of the same compound?
Answer: Its pIC50 is 4.64.

Reference: ChEMBL document CHEMBL1152055, “Synthesis and biological evaluation of four stereoisomers of PDMP-analogue, N-(2-decylamino-3-hydroxy-3-phenylprop-1-yl)--valienamine, and related compounds” (Bioorg Med Chem Lett, 1997)
